Earlier results on one compound are cited in patent US10821075B1, “Compositions for topical application of a medicaments onto a mammalian body surface” (priority 2017, dated 2020).

Structures are written as SMILES.

The conditions of the data set: weak acid drug.

For orientation: pKa means the negative logarithm of the acid dissociation constant. Regarding `CC(C(=O)O)c1cccc(C(=O)c2ccccc2)c1` (stereo not shown) [ketoprofen], the pKa was 4.30.
